Experimental data taken from patent US10071964B2, “Disubstituted piperidines as butyrylcholinesterase inhibitors” (priority 2015, dated 2018).

What was measured:
[1] = biological target: human recombinant butyrylcholinesterase (huBChE) (Homo sapiens, UniProt P06276); test: biochemical; conditions: read-out: IC50 ± STD (μM) huBChE
Excerpt: (§1) Ellman's method was used to evaluate the inhibitory activities of the synthesized compounds against the cholinesterases. […] As a substrate butyrylthiocholine (BTC) and acetylthiocholine (ATC) iodides were used for BChE and AChE, respectively. […] For the reference sample, 1% dimethylsulfoxide (DMSO) replaced the inhibitor's solution.
(§2) Potency of the inhibitor is expressed as a residual activity (RA) of the enzyme at the employed inhibitor's concentration, half maximal inhibitory concentration (IC50 value) and as an inhibition constant (Ki).
(§3) The enzyme reactions were carried out using murine acetylcholinesterase (mAChE) and human recombinant butyrylcholinesterase (huBChE). From the lyophilised powders of both enzymes, the solutions were obtained by dissolution of the powders in 10 mM MES buffer (pH 6.5) to reach the concentration of 4 mg/mL. The concentrated enzyme solution was diluted prior use in 100 mM phosphate buffer (pH 8.0) to reach the activity of the enzyme in the assay of approximately 500 mAu per minute.
(§4) ATCI in BTCI solutions were prepared in 100 mM phosphate buffer (pH 8.0) to reach the final concentration in the assay of 500 μM.
(§5) Enzyme solutions were prepared by dilution of the concentrated stocks in the 100 mM phosphate buffer (pH 8.0). […] Enzyme reaction was started with the addition of the substrate. The DMSO concentration in the test solution was always 1%. […] For the determination of blank (b) the phosphate buffer replaced the enzyme solution. Initial velocity of the enzyme reaction (v0) was determined from the linear curve of the enzyme reaction product formation, where each measurement was performed in triplicate. For the initial screening of inhibition ability, […] concentration of the investigated compounds was used. Compounds were pipetted in the corresponding wells to reach the final concentration of 10 μM. Tested compound and the enzyme solution were first preincubated for 300s, followed by the substrate addition, which triggered the enzyme reaction. The initial velocity in presence of the inhibitor was further calculated (vi). The inhibition capability was expressed as residual activity (RA=(vi−b)/(vo−b)).
(§6) IC50 values were determined by plotting the RA versus the concentration of the investigated compound.
(§7) Where X is a common logarithm of the concentration of the inhibitor and Y is the residual activity. For solving the equation Gnuplot software and an in-house python script were used. For the determination of the inhibition constant full progress curves of the product formation in presence and absence of investigated compounds were monitored. The curves were submitted in the ENZO web-application, which allows solving of numerical equations.

[2] = biological target: T1, murine acetylcholinesterase (mAChE) (Mus musculus, UniProt P21836); test: Ellman's method enzyme assay, mAChE inhibition; format: biochemical; conditions: for % inhibition at 10 μM mAChE: 10 μM compound, n.i. = no inhibition
T1 sequence (P21836 32-614): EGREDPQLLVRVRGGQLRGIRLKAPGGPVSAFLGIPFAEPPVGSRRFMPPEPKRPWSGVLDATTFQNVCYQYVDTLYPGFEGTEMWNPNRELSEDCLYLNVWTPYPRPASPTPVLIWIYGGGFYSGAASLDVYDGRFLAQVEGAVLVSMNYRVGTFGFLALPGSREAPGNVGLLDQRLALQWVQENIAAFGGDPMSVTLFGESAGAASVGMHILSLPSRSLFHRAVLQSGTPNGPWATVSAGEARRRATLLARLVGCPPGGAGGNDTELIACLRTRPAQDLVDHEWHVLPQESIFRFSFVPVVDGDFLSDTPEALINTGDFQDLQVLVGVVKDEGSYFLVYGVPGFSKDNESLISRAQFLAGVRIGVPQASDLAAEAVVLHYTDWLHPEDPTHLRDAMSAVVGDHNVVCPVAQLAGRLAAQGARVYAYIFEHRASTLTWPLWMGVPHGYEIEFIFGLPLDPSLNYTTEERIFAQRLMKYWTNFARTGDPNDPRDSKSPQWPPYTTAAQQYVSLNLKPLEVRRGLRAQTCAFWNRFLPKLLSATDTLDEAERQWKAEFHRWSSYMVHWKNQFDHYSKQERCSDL
Excerpt: as §1, §2, §3, §4
Stock solutions of compounds were prepared in DMSO in a concentration of 10 mM.
as §5, §6, §7

Chain of human recombinant butyrylcholinesterase (huBChE) (P06276 29-602): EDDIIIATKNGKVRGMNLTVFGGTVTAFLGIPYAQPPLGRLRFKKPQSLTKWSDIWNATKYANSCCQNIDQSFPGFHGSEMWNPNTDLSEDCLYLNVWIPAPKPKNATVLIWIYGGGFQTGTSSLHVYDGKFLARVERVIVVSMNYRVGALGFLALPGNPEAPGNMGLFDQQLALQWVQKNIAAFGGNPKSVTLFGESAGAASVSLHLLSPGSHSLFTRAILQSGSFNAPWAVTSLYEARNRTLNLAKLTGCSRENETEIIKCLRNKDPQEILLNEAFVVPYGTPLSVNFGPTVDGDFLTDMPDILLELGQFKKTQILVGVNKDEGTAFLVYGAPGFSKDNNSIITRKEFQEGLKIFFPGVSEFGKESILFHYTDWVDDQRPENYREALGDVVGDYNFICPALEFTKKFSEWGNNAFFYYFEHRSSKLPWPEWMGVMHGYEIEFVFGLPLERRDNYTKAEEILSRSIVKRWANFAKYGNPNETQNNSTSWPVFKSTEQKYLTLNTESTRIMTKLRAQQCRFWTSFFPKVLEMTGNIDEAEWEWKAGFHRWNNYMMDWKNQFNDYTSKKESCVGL

SMILES | IC50 [1] | % inhibition at 10 μM mAChE ([2]; Table 2, formula (II)) | inhibition at 10 µM ([2]; read-out: % inhibition ± STD at 10 μM inhibitor mAChE, Table 1, formula (I), 10 μM inhibitor) | IC50 ([2]; Table 2, formula (II), substrate ATCI 500 μM, read-out: IC50 ± STD (μM) mAChE)
O=S(=O)(NCC1CCCN(Cc2ccc(F)cc2Cl)C1)c1ccc2ccccc2c1 (stereo not drawn) | 0.347 ± 0.06 µM | 73 ± 3.60% |  | 
COCCN(CC1CCCN(Cc2cccc(F)c2)C1)S(=O)(=O)c1ccc2ccccc2c1 (stereo not drawn) | 0.0491 ± 0.0012 µM | n.i. |  | 
COCCN(CC1CCCN(Cc2ccccc2)C1)S(=O)(=O)c1ccc2ccccc2c1 (stereo not drawn) |  | n.i. |  | 
COCCN(CC1CCCN(C2Cc3ccccc3C2)C1)S(=O)(=O)c1ccc(OC)cc1 (stereo not drawn) | 0.482 ± 0.066 µM | n.i. |  | 
CN(C)CCN(CC1CCCN(C2Cc3ccccc3C2)C1)C(=O)c1ccc2ccccc2c1 (stereo not drawn) |  |  | 17.4 ± 3.7% | 
COCCN(CC1CCCN(C2Cc3ccccc3C2)C1)S(=O)(=O)c1ccc([N+](=O)[O-])cc1 (stereo not drawn) | 3.47 ± 0.052 µM | n.i. |  | 
COCCN(CC1CCCN(C2Cc3ccccc3C2)C1)S(=O)(=O)c1ccccc1 (stereo not drawn) | 0.343 ± 0.005 µM | n.i. |  | 
COCCN(CC1CCCN(C2Cc3ccccc3C2)C1)S(=O)(=O)c1ccc2ccccc2c1 (stereo not drawn) |  | 72 ± 0.86% |  | 
COCCN(CC1CCCN(Cc2ccccc2)C1)S(=O)(=O)c1ccc2ccc(OC)cc2c1 (stereo not drawn) | 0.156 ± 0.033 µM | n.i. |  | 
Cc1cccc(CN2CCCC(CNS(=O)(=O)c3ccc4ccccc4c3)C2)c1 (stereo not drawn) | 0.287 ± 0.022 µM | 57 ± 3.55% |  | 
COCCN(CC1CCCN(C2Cc3ccccc3C2)C1)S(=O)(=O)c1cccc([N+](=O)[O-])c1 (stereo not drawn) | 3.61 ± 0.528 µM |  |  | 
COCCN(CC1CCN(Cc2ccccc2)CC1)S(=O)(=O)c1ccc2ccccc2c1 |  | n.i. |  | 
COCCN(CC1CCN(C2Cc3ccccc3C2)CC1)S(=O)(=O)c1ccc2ccccc2c1 |  | n.i. |  | 
COCCN(CC1CCCN(C2Cc3ccccc3C2)C1)S(=O)(=O)c1ccc(N)cc1 (stereo not drawn) | 0.314 ± 0.036 µM | n.i. |  | 
O=S(=O)(NCC1CCCN(Cc2ccccc2)C1)c1ccc2ccccc2c1 (stereo not drawn) |  | n.i. |  | 
COCCN(CC1CCCN(C2Cc3ccccc3C2)C1)S(=O)(=O)c1cccc(NC(C)=O)c1 (stereo not drawn) | 8.21 ± 0.601 µM | n.i. |  | 
COCCN(CC1CCCN(Cc2ccc(F)cc2)C1)S(=O)(=O)c1ccc2ccccc2c1 (stereo not drawn) | 0.231 ± 0.006 µM | n.i. |  | 
CCN(CC1CCCN(Cc2ccccc2)C1)S(=O)(=O)c1ccc2ccccc2c1 (stereo not drawn) | 0.038 ± 0.0026 µM | n.i. |  | 
O=S(=O)(NCC1CCCN(Cc2ccc(F)cc2)C1)c1ccc2ccccc2c1 (stereo not drawn) | 0.583 ± 0.043 µM | 75 ± 4.19% |  | 
COCCCN(CC1CCCN(Cc2ccccc2)C1)S(=O)(=O)c1ccc2ccc(OCC#N)cc2c1 (stereo not drawn) | 0.113 ± 0.008 µM | n.i. |  | 
COCCCN(CC1CCN(Cc2ccccc2)CC1)S(=O)(=O)c1ccc2ccccc2c1 |  | n.i. |  | 

SMILES | IC50 [1] | % inhibition at 10 μM mAChE ([2]; Table 2, formula (II)) | inhibition at 10 µM ([2]; read-out: % inhibition ± STD at 10 μM inhibitor mAChE, Table 1, formula (I), 10 μM inhibitor) | IC50 ([2]; Table 2, formula (II), substrate ATCI 500 μM, read-out: IC50 ± STD (μM) mAChE)
COCCN(CC1CCCN(C2Cc3ccccc3C2)C1)S(=O)(=O)c1ccc(C)cc1 (stereo not drawn) | 0.279 ± 0.008 µM | n.i. |  | 
COCCN(CC1CCCN(Cc2ccccc2)C1)S(=O)(=O)c1cccc2ccccc12 (stereo not drawn) | 0.059 ± 0.0054 µM | n.i. |  | 
CCCN(CC1CCCN(Cc2ccccc2)C1)S(=O)(=O)c1ccc2ccccc2c1 (stereo not drawn) | 0.0428 ± 0.0064 µM | n.i. |  | 
O=S(=O)(NCC1CCCN(Cc2ccncc2)C1)c1ccc2ccccc2c1 (stereo not drawn) | 1.67 ± 0.256 µM | n.i. |  | 
CN(CC1CCCN(Cc2ccc(F)cc2)C1)S(=O)(=O)c1ccc2ccccc2c1 (stereo not drawn) | 0.427 ± 0.044 µM | n.i. |  | 
CCCCN(CC1CCCN(Cc2ccccc2)C1)S(=O)(=O)c1ccc2ccccc2c1 (stereo not drawn) | 0.0355 ± 0.0044 µM | n.i. |  | 
COCCN(CC1CCCN(Cc2ccc(N(C)C)cc2)C1)S(=O)(=O)c1ccc2ccccc2c1 (stereo not drawn) | 0.311 ± 0.022 µM | n.i. |  | 
COCCN(CC1CCCN(C2Cc3ccccc3C2)C1)S(=O)(=O)c1ccc(NC(C)=O)cc1 (stereo not drawn) | 0.321 ± 0.035 µM | n.i. |  | 
Cc1nc(CN2CCCC(CNS(=O)(=O)c3ccc4ccccc4c3)C2)cs1 (stereo not drawn) | 0.366 ± 0.031 µM | 71 ± 3.68% |  | 
CN(CC1CCCN(Cc2ccccc2)C1)S(=O)(=O)c1ccc2ccccc2c1 (stereo not drawn) |  | n.i. |  | 
COCCN(CC1CCCN(Cc2cccc(C#N)c2)C1)S(=O)(=O)c1ccc2ccccc2c1 (stereo not drawn) | 0.338 ± 0.008 µM | n.i. |  | 
COCCN(CC1CCCN(C2Cc3ccccc3C2)C1)S(=O)(=O)c1cccc(N)c1 (stereo not drawn) |  | n.i. |  | 
COCCCN(CC1CCCN(Cc2ccccc2)C1)S(=O)(=O)c1ccc2ccccc2c1 (stereo not drawn) |  | n.i. |  | 
N#Cc1ccc(CN2CCCC(CNS(=O)(=O)c3ccc4ccccc4c3)C2)cc1 (stereo not drawn) | 2.09 ± 0.328 µM | n.i. |  | 
COCCCN(CC1CCN(C2Cc3ccccc3C2)CC1)S(=O)(=O)c1ccc2ccccc2c1 |  | n.i. |  | 
COCCN(CC1CCCN(C2Cc3ccccc3C2)C1)S(=O)(=O)c1ccccc1C(=O)OC (stereo not drawn) | 0.359 ± 0.018 µM | n.i. |  | 
O=S(=O)(NCC1CCN(Cc2ccccc2)CC1)c1ccc2ccccc2c1 |  |  |  | 1.78 ± 0.085 µM
CNC(=O)c1ccccc1S(=O)(=O)N(CCOC)CC1CCCN(C2Cc3ccccc3C2)C1 (stereo not drawn) | 3.23 ± 0.492 µM | n.i. |  | 
COCCN(CC1CCCN(Cc2ccc(C#N)cc2)C1)S(=O)(=O)c1ccc2ccccc2c1 (stereo not drawn) | 1.46 ± 0.115 µM | n.i. |  | 
COCCN(CC1CCCN(C2Cc3ccccc3C2)C1)S(=O)(=O)c1ccc(F)cc1 (stereo not drawn) | 0.887 ± 0.08 µM | n.i. |  | 
